This note sets out measurements from ChEMBL document CHEMBL3797164, “Transfer of SAR information from hypotensive indazole to indole derivatives acting at α-adrenergic receptors: In vitro and in vivo studies” (Eur J Med Chem, 2016).

Data set [1] has as its target T1, Adrenergic receptor alpha-2 (Homo sapiens, UniProt P08913+P18825+P18089).
T1 sequence (P08913 whole entry): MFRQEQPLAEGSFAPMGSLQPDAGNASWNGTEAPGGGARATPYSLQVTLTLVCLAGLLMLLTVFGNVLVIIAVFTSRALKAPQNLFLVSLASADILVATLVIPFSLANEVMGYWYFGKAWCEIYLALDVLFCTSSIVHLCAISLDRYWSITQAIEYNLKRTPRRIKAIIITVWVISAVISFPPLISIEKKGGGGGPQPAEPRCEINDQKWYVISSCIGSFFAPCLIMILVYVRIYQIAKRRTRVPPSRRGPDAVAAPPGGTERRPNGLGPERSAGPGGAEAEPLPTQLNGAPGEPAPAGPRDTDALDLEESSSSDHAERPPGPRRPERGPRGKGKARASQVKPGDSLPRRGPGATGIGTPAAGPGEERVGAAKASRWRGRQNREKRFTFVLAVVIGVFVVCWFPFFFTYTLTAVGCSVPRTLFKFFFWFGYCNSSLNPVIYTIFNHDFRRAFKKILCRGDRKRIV
T1 sequence (P18825 whole entry): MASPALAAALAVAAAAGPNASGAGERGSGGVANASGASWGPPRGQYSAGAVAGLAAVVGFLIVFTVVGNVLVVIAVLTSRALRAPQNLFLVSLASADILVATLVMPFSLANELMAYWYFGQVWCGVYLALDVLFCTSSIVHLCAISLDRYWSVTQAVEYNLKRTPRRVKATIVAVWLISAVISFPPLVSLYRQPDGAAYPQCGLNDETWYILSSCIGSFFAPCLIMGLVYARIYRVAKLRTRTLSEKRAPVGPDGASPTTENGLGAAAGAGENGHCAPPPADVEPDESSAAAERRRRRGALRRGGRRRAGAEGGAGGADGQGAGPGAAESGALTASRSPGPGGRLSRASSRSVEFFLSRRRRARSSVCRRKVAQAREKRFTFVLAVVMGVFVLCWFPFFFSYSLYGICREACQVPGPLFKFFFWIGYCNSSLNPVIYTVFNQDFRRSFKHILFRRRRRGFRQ
T1 sequence (P18089 whole entry): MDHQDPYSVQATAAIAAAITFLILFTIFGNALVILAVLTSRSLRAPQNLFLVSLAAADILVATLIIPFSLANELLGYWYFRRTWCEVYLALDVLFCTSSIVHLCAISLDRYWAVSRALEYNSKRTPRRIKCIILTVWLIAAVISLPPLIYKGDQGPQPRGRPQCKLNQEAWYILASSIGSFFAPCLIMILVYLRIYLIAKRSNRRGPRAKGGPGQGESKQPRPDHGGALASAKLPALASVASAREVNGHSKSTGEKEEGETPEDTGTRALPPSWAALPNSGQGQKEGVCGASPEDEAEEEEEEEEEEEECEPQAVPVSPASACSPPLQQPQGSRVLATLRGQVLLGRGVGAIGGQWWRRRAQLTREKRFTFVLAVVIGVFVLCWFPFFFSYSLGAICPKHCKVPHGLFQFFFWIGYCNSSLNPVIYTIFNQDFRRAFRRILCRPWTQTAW
Nature of the data set: Agonist activity at human recombinant Alpha-2 adrenergic receptor expressed in CHOK1 cells after 30 mins by [35S]GTPgammaS binding assay. It counts as functional, cell-based. The conditions noted are these: cho-k1. (In general: Binding of GTPγS marks nucleotide exchange on a G protein.)

Data set [2] concerns Rattus norvegicus. Nature of the data set: Neurotoxicity in Sprague-Dawley rat assessed as exploratory behaviour changes at 10 to 2000 ug/kg, ip after 30 mins by LORR test. The conditions noted are these: in vivo, 0.5 h. It counts as toxicity, organism-based.
For data set [3], the system named is Rattus norvegicus. Nature of the data set: Neurotoxicity in Sprague-Dawley rat assessed as induction of forpaw grasping reflex at 1000 to 1500 ug/kg, ip after 15 to 30 mins by LORR test. It counts as toxicity, organism-based. The conditions noted are these: in vivo.
The test system of data set [4] is Rattus norvegicus. Nature of the data set: Neurotoxicity in Sprague-Dawley rat assessed as induction of resistance to lateral push at 1000 to 1500 ug/kg, ip after 15 to 30 mins by LORR test. Format: toxicity, organism-based. The conditions noted are these: in vivo.
The test system of data set [5] is Rattus norvegicus. Nature of the data set: Neurotoxicity in Sprague-Dawley rat assessed as induction of hind limb flexion at 1000 to 1500 ug/kg, ip after 15 to 30 mins by LORR test. It counts as toxicity, organism-based, Hindlimb. The conditions noted are these: in vivo.
In data set [6] the test system is Rattus norvegicus. Nature of the data set: Neurotoxicity in Sprague-Dawley rat assessed as induction of sedative-hypnotic state at 10 to 500 ug/kg, ip after 30 mins by LORR test. It counts as toxicity, organism-based. The conditions noted are these: in vivo, 0.5 h.

By EC50 is commonly meant the concentration that produces a half-maximal response.

The structures appear in SMILES notation.

Regarding `Br.Cc1cccc2ccn(CC3=NCCN3)c12`, the EC50 in data set [1] was found to be 0.0079 µM.
As to `Cl.Clc1cccc2ccn(CC3=NCCN3)c12`, the Activity entry was “Non-toxic” in the data set on Rattus norvegicus [2]; “Non-toxic” in the data set on Rattus norvegicus [3]; “Non-toxic” in the data set on Rattus norvegicus [4]; “Toxic” with Rattus norvegicus [5]; “Non-toxic” in the data set on Rattus norvegicus [6]. For the same molecule, the EC50 in data set [1] turned out to be 3.6 µM.
